Test results published in US10844038B2, “1,2-dithiolane compounds useful in neuroprotection, autoimmune and cancer diseases and conditions” (SABILA BIOSCIENCES LLC, priority 2016, dated 2020).

Tests used:
LCK = LCK (Homo sapiens (Human), UniProt P06239); test: Rabbit reticulocyte lysate assay (KinaseSeeker competition binding); details: read-out: IC50 Activity Levels Against SRC Family Kinases: LCK
HCK = HCK (Homo sapiens (Human), UniProt P08631); test: as above; details: read-out: IC50 Activity Levels Against SRC Family Kinases: HCK
BLK = BLK (Homo sapiens (Human), UniProt P51451); test: as above; details: read-out: IC50 Activity Levels Against SRC Family Kinases: BLK
SRC = SRC (Homo sapiens (Human), UniProt P12931); test: as above; details: read-out: IC50 Activity Levels Against SRC Family Kinases: SRC
FYN = FYN (Homo sapiens (Human), UniProt P06241); test: as above; details: at 1 μM
ERK2 = ERK2 (Homo sapiens (Human), UniProt P28482); test: KINOMEscan competition binding assay (Kd); details: read-out: Kd Values Against MAPK Pathway Kinases: ERK2
MEK2 = MEK2 (Homo sapiens (Human), UniProt P36507); test: KINOMEscan competition binding assay (Kd); details: read-out: Kd Values Against MEK Kinases Isoforms: MEK2
MEK4 = MEK4 (Homo sapiens (Human), UniProt P45985); test: KINOMEscan competition binding assay (Kd); details: read-out: Kd Values Against MEK Kinases Isoforms: MEK4
MEK3 = MEK3 (Homo sapiens (Human), UniProt P46734); test: KINOMEscan competition binding assay (Kd); details: read-out: Kd Values Against MEK Kinases Isoforms: MEK3
ERK1 = ERK1 (Homo sapiens (Human), UniProt P27361); test: KINOMEscan competition binding assay (Kd); details: read-out: Kd Values Against MAPK Pathway Kinases: ERK1
BRAF (V600E) = BRAF (V600E) (Homo sapiens (Human), UniProt P15056, V600E); test: KINOMEscan competition binding assay (Kd); details: read-out: Kd Values Against MAPK Pathway Kinases: BRAF (V600E)
Chain of BRAF (V600E) (P15056 whole entry V600E): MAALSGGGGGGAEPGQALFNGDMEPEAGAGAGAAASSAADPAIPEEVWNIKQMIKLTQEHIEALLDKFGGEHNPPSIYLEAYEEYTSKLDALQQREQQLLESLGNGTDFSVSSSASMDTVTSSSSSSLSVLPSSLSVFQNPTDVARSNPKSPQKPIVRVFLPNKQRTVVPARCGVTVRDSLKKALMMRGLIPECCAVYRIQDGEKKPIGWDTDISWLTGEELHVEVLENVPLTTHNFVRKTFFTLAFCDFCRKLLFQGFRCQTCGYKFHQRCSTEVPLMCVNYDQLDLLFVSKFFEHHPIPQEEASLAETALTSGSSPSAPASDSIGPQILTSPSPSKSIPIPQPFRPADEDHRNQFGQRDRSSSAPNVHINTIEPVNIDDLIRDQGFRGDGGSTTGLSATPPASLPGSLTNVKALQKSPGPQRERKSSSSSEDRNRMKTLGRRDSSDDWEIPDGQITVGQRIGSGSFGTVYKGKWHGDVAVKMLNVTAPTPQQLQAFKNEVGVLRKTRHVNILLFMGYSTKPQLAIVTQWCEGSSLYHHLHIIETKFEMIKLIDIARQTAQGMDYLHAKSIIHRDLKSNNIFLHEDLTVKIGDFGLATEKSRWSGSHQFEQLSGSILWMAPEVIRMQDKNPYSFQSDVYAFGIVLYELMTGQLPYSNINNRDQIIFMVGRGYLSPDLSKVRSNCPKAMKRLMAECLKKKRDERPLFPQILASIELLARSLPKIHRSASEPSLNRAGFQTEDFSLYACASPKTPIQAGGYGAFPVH

Chain of MEK3 (P46734 whole entry, canonical isoform): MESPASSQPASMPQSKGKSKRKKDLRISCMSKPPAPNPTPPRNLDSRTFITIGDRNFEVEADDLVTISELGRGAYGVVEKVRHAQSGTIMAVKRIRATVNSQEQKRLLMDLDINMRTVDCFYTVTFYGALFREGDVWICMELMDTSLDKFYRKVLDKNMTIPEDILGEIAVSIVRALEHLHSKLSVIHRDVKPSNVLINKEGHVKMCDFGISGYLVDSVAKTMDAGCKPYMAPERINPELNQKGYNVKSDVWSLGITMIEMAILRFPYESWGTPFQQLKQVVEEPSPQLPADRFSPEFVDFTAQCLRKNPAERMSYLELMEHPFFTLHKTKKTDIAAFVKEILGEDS
Chain of SRC (P12931 whole entry, looked up): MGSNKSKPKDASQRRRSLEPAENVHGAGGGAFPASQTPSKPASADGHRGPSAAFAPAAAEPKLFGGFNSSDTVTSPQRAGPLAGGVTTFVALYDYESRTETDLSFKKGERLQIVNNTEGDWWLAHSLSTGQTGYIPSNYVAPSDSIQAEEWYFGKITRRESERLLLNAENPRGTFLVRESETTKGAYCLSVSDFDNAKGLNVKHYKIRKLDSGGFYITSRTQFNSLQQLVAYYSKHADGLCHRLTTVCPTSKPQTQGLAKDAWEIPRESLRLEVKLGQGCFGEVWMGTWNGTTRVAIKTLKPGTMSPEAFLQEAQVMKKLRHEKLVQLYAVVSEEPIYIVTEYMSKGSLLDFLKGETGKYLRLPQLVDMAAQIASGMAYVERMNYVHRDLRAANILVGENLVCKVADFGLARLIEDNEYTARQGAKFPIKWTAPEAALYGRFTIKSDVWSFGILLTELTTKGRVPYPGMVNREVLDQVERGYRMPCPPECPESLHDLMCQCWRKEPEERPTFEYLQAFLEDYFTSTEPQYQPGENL
Chain of BLK (P51451 whole entry): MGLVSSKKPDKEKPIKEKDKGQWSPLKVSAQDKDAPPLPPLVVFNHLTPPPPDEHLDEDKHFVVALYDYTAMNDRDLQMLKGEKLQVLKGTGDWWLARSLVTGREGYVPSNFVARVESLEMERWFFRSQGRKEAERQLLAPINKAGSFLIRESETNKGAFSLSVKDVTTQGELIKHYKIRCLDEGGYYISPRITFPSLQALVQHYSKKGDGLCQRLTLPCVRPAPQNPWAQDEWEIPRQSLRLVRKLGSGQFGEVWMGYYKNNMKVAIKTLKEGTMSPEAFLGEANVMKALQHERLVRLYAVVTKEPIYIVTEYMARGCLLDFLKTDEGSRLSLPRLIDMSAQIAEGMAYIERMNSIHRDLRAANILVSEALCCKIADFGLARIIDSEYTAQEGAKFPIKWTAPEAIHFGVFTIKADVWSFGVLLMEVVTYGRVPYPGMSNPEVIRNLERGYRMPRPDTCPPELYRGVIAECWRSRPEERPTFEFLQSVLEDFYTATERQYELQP
Chain of MEK2 (P36507 whole entry, canonical isoform): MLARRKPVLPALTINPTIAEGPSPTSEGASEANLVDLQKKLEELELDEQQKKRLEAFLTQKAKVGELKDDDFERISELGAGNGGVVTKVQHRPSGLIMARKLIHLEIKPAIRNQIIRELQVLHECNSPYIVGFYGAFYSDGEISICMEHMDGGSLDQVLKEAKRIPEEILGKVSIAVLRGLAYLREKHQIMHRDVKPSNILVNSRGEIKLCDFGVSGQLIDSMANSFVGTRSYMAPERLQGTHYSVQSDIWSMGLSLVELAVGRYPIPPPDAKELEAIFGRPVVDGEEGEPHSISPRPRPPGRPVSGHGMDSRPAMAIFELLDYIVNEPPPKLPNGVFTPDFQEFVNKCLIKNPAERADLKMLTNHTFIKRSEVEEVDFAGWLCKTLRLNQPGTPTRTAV
Chain of HCK (P08631 whole entry): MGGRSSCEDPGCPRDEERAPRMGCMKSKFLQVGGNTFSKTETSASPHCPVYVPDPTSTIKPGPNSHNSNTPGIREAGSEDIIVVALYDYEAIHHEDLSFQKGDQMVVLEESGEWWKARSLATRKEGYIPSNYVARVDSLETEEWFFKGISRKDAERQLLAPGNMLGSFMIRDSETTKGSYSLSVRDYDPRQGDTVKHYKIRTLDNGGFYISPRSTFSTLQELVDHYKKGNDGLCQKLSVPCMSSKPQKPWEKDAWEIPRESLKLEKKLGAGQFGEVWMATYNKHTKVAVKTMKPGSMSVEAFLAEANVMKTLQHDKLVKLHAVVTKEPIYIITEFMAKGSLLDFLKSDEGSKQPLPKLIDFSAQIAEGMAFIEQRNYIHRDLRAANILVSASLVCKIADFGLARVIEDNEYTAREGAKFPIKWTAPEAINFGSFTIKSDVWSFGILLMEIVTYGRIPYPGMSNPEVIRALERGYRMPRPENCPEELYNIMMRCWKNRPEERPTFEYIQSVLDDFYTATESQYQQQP
Chain of ERK2 (P28482 whole entry, canonical isoform): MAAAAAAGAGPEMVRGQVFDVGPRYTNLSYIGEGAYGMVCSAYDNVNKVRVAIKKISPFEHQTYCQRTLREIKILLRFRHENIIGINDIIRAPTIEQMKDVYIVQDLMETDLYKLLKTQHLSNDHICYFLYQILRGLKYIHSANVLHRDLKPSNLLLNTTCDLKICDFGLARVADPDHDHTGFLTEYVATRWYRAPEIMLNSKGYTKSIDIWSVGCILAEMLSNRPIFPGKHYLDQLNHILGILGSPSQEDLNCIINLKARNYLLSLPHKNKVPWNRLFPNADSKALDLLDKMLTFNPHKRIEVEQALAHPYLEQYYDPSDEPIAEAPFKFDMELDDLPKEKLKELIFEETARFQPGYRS
Chain of LCK (P06239 whole entry): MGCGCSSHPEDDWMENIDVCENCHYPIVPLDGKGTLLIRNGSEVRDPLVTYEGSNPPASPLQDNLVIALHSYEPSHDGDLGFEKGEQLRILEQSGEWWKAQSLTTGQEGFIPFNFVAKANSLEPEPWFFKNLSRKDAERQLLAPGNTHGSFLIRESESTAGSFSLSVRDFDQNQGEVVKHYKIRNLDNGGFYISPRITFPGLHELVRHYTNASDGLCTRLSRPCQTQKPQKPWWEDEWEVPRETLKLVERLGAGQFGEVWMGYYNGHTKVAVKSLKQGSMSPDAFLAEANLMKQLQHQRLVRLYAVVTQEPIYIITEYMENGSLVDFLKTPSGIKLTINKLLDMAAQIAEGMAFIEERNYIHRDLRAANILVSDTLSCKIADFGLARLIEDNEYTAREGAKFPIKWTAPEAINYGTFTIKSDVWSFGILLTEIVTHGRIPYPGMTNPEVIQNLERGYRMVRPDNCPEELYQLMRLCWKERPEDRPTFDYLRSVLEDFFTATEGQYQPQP
Chain of MEK4 (P45985 whole entry, canonical isoform): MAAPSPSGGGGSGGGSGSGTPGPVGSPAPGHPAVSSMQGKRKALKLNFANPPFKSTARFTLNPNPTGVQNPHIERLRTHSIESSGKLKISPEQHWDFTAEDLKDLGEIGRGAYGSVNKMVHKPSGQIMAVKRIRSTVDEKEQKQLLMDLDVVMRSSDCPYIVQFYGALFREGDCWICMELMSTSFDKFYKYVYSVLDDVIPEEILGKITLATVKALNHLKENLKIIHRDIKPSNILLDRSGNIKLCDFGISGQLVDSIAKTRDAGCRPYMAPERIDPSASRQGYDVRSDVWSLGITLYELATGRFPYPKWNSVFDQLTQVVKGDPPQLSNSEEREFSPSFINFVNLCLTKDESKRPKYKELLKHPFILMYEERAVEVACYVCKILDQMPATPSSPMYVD
Chain of FYN (P06241 whole entry): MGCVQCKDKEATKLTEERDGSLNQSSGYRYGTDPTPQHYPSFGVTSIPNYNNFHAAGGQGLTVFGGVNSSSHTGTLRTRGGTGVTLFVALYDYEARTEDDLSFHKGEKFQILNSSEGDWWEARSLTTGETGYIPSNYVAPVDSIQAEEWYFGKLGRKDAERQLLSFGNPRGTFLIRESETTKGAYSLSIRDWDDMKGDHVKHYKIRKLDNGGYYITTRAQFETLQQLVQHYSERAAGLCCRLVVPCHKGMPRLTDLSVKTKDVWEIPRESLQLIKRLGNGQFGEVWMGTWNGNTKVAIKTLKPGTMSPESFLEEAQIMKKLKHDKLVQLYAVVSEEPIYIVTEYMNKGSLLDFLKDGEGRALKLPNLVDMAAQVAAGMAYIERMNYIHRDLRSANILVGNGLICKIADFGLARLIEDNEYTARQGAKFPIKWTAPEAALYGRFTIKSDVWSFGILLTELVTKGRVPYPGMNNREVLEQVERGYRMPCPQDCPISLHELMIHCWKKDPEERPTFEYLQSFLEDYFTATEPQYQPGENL

| IC50 (LCK) [nM] | IC50 (HCK) [nM] | IC50 (BLK) [nM] | IC50 (SRC) [nM] | % Inhibition Against SRC Family Kinases: FYN (FYN) [%] | Kd (ERK2) [nM] | Kd (MEK2) [nM] | Kd (MEK4) [nM] | Kd (MEK3) [nM] | Kd (ERK1) [nM] | Kd (BRAF (V600E)) [nM] | SMILES |
| --- | --- | --- | --- | --- | --- | --- | --- | --- | --- | --- | --- |
| 100 to 999 | 100 to 999 | 100 to 999 | 100 to 999 | 77 |  |  |  |  |  |  | Nc1ncnc2c1c(-c1ccc(Oc3ccccc3)cc1)nn2C[C@H]1SSC[C@@H]1O [43 B.] |
|  |  |  |  |  | 1000 to 10000 | 100 to 999 | 1000 to 10000 | 1000 to 10000 | 1000 to 10000 | 1000 to 10000 | Nc1ncnc2c1c(-c1ccc(Oc3ccccc3)cc1)nn2C[C@H]1SSC[C@H]1O [46 B.] |
